This passage reports IC50 results from patent US20080146593A1, “Substituted 5-Phenyl Pyrimidines I In Therapy” (Basf Aktiengesellschaft, priority 2005, published 2008).

The term IC50 denotes the concentration that gives 50% inhibition.

The test system of the experiment is HeLa cells. Briefly: Measurement of the cell cycle inhibition in HeLa cells. As to conditions: HeLa B cells, 20 h incubation with compound; FACS ratio G0/G1 to G2/M vs DMSO; concentration at which 50% of cells are in cell cycle arrest. Format: cell-based. As to the method: Measurement of the Cell Cycle Inhibition in HeLa Cells—Test Procedure:
HeLa B cells are grown in DMEM (Life Technologies Cat No 21969-035) supplemented with 10% Fetal Calf Serum (FCS, Life Technologies Cat No 10270-106) in 180 cm^2 Flasks at 37° C., 92% humidity and 7% CO2.
Cells are seeded at 5×10^4 cells per well in a 24-well plate. Twenty hours later the compounds are added such that the final concentration is 1×10^−6, 3.3×10^−7, 1.1×10^−7, 3.7×10^−8, 1.2×10^−8 and 1×10^−9 M in a final volume of 500 μl. DMSO alone is added to 6 wells as a control. Cells are incubated with the compounds as above for 20 h. Then cells are observed under the microscope to check for cell death, and the 24-well plate is then centrifuged at 1200 rpm for 5 min at 20° C., acceleration position 7 and break position 5 (Eppendorf centrifuge 5804R).
The supernatant is removed and the cells lysed with 0.5 ml RNase Buffer (10 mM NaCitrate, 0.1% Nonidet NP40, 50 μg/ml RNase, 10 μg/ml Propidium iodide) per well. The plates are then incubated for at least 30 min in the dark at RT and the samples then transferred to FACS tubes. Samples are measured in a FACS machine (Beckton Dickinson) at the following settings:
Instrument Settings of the FACS Calibur:
The ratio of cells in G0/G1-phase to G2/M phase is calculated and compared to the value for the controls (DMSO) only. Results are given in table 2 as the IC50 value calculated from the concentration curve plotted against the cell cycle ratio and indicate the compound concentration at which 50% of cells are in cell cycle arrest after treatment with the compound.

With `CC1CCN(c2nc(C(N)=NO)nc(Cl)c2-c2c(F)cccc2F)CC1` [Example 194], the IC50 turned out to be 0.021 µM.

For the compound `CC[C@H](C)Nc1nc(C(N)=NO)nc(Cl)c1-c1ccc(F)cc1Cl` [Example 168], the IC50 stood at 0.036 µM.

Turning to `Cc1cccc(-c2nc(Cl)c(-c3c(F)cc(F)cc3F)c(NC(C)C)n2)n1` [Example 11], the IC50 came out at 0.042 µM.

In the case of `CC(C)[C@H](C)Nc1nc(C(N)=NO)nc(Cl)c1-c1c(F)cccc1F` [Example 195], the 50% inhibitory concentration (IC50) was determined as 0.02 µM.

For `Cc1cnn(-c2nc(Cl)c(-c3c(F)cc(F)cc3F)c(N3CCCCC3)n2)c1` [Example 55], the IC50 was found to be 0.026 µM.

In the case of `CC(C)Nc1nc(-n2ccc(C(F)(F)F)n2)nc(Cl)c1-c1c(F)cc(F)cc1F` [Example 16], the IC50 came to 0.046 µM.

`COc1cc(F)c(-c2c(Cl)nc(C(N)=NO)nc2N[C@@H](C)C(C)C)c(F)c1` [Example 191]: the IC50 worked out at 0.012 µM.

With `CON=C(N)c1nc(Cl)c(-c2c(F)cc(OC)cc2F)c(N[C@@H](C)C(F)(F)F)n1` [Example 182], the IC50 amounted to 0.011 µM.

With `CCC(C)Nc1nc(ON=C(C)C)nc(Cl)c1-c1c(C)cccc1F` (stereo not shown) [Example 112], the IC50 was determined as 0.021 µM.

Turning to `CC1CCCN1c1nc(-n2cncn2)nc(Cl)c1-c1c(F)cccc1Cl` (stereo not shown) [Example 98], the IC50 worked out at 0.046 µM.

As for `CON=C(N)c1nc(Cl)c(-c2c(F)cccc2F)c(N[C@@H](C)C(C)C)n1` [Example 196], the IC50 was determined as 0.038 µM.

Regarding `CC(C)Nc1nc(-n2ccc(N)n2)nc(Cl)c1-c1c(F)cc(F)cc1F` [Example 104], the IC50 came to 0.047 µM.

With `CCNc1nc(-n2cccn2)nc(Cl)c1-c1c(F)cc(F)cc1F` [Example 164], the IC50 was 0.048 µM.

`Fc1cc(F)c(-c2c(Cl)nc(-n3cccn3)nc2N2CC=CCC2)c(F)c1` [Example 41]: the half-maximal inhibitory concentration (IC50) is 0.038 µM.

Turning to `CC(C)[C@H](C)Nc1nc(C(N)=NO)nc(Cl)c1-c1ccc([N+](=O)[O-])cc1Cl` [Example 192], the IC50 was determined as 0.03 µM.

For the compound `CON=C(N)c1nc(Cl)c(-c2c(F)cccc2Cl)c(N[C@@H](C)C(F)(F)F)n1` [Example 214], the IC50 is 0.018 µM.

On to `CCC(C)Nc1nc(-n2cc(I)cn2)nc(Cl)c1-c1c(C)cccc1F` (stereo not shown) [Example 120], for which the IC50 stood at 0.025 µM.

Consider `COc1ccc(-c2c(Cl)nc(C(N)=NO)nc2N[C@@H](C)C(F)(F)F)c(Cl)c1` [Example 215], for which the IC50 came out at 0.014 µM.

Consider `C=C(C)CNc1nc(-n2ccc(N)n2)nc(Cl)c1-c1c(F)cc(F)cc1F` [Example 122], for which the IC50 was 0.046 µM.

With `COc1cc(F)c(-c2c(Cl)nc(-c3ccccn3)nc2N[C@@H](C)C(C)C)c(F)c1` [Example 65], the IC50 was 0.02 µM.

In the case of `CC1CCN(c2nc(-c3ccccn3)nc(Cl)c2-c2c(F)cc(O)cc2F)CC1` [Example 73], the IC50 came to 0.011 µM.

For `CCC(C)Nc1nc(-n2ccnn2)nc(Cl)c1-c1c(C)cccc1F` (stereo not shown) [Example 111], the IC50 is 0.029 µM.

`CCC(C)Nc1nc(-n2cccn2)nc(Cl)c1-c1ccc(C)cc1F` (stereo not shown) [Example 97]: the IC50 is 0.013 µM.

On to `CCC(C)Nc1nc(-n2cncn2)nc(Cl)c1-c1c(F)cccc1F` (stereo not shown) [Example 113], for which the IC50 amounted to 0.049 µM.

Take `CC(C)=NOc1nc(Cl)c(-c2c(F)cc(F)cc2F)c(N[C@@H](C)C(F)(F)F)n1` [Example 204]: the IC50 turned out to be 0.023 µM.

In the case of `CCCC(C)Nc1nc(-n2ccc(N)n2)nc(Cl)c1-c1ccc(C)cc1F` (stereo not shown) [Example 121], the IC50 was determined as 0.05 µM.

Consider `CCC(C)Nc1nc(-n2cc(C#N)cn2)nc(Cl)c1-c1c(F)cccc1Cl` (stereo not shown) [Example 163], for which the IC50 came out at 0.03 µM.

Consider `CON=C(N)c1nc(Cl)c(-c2c(F)cc(OC)cc2F)c(N2CCC(C)CC2)n1` [Example 197], for which the half-inhibitory concentration (IC50) is 0.042 µM.

Regarding `CC(C)Nc1nc(-n2cc(Br)cn2)nc(Cl)c1-c1c(F)cccc1Cl` [Example 19], the IC50 was found to be 0.016 µM.

On to `C=CCN(CC=C)c1nc(-n2ccc(N)n2)nc(Cl)c1-c1ccc(F)cc1Cl` [Example 135], for which the IC50 came out at 0.018 µM.

As to `CC1CCN(c2nc(-c3nccs3)nc(Cl)c2-c2c(F)cc(F)cc2F)CC1` [Example 39], the IC50 was determined as 0.026 µM.

`C[C@H](Nc1nc(-c2ccccn2)nc(Cl)c1-c1c(F)cc(F)cc1F)C(F)(F)F` [Example 12]: the IC50 came to 0.0069 µM.

Take `CON=C(N)c1nc(Cl)c(-c2c(F)cc(OC)cc2F)c(N[C@@H](C)C(C)C)n1` [Example 198]: the IC50 came out at 0.015 µM.

Regarding `C=CCCN(C)c1nc(-n2ccc(N)n2)nc(Cl)c1-c1c(F)cccc1Cl` [Example 131], the IC50 stood at 0.048 µM.

In the case of `COc1cc(F)c(-c2c(Cl)nc(-c3ccccn3)nc2NC(C)C)c(F)c1` [Example 62], the IC50 came to 0.023 µM.

In the case of `CON=C(N)c1nc(Cl)c(-c2ccc(OC)cc2Cl)c(N[C@@H](C)C(F)(F)F)n1` [Example 216], the half-maximal inhibitory concentration (IC50) worked out at 0.027 µM.

Take `Cc1ccc(-c2c(Cl)nc(-n3cncn3)nc2N[C@@H](C)C(C)C)c(F)c1` [Example 100]: the IC50 came out at 0.04 µM.

`CCC(C)Nc1nc(-n2ccc(N)n2)nc(Cl)c1-c1c(F)cccc1Cl` (stereo not shown) [Example 148]: the IC50 is 0.034 µM.

For the compound `CON=C(N)c1nc(Cl)c(-c2c(F)cccc2F)c(N[C@@H](C)C(F)(F)F)n1` [Example 213], the IC50 was 0.051 µM.

On to `COc1cc(F)c(-c2c(Cl)nc(-n3cnc([N+](=O)[O-])n3)nc2N2CCC(C)CC2)c(F)c1` [Example 86], for which the IC50 is 0.024 µM.

Turning to `CCC(C)Nc1nc(-c2ccccn2)nc(Cl)c1-c1c(F)cc(OC)cc1F` (stereo not shown) [Example 63], the IC50 is 0.022 µM.

With `CC(C)[C@H](C)Nc1nc(C(N)=NO)nc(Cl)c1-c1ccc(F)cc1Cl` [Example 193], the IC50 stood at 0.009 µM.

In the case of `CC(C)[C@H](C)Nc1nc(-c2nccs2)nc(Cl)c1-c1c(F)cccc1Cl` [Example 136], the IC50 turned out to be 0.029 µM.

Turning to `Cc1ccn(-c2nc(Cl)c(-c3c(F)cc(F)cc3F)c(NC(C)C)n2)n1` [Example 18], the IC50 came out at 0.039 µM.

On to `CC(C)[C@H](C)Nc1nc(C(N)=NO)nc(Cl)c1-c1c(F)cc(F)cc1F` [Example 145], for which the IC50 was 0.023 µM.

In the case of `C[C@H](Nc1nc(-c2nccs2)nc(Cl)c1-c1c(F)cc(F)cc1F)C(F)(F)F` [Example 129], the IC50 turned out to be 0.014 µM.

Take `CC1CCCCN1c1nc(-n2cncn2)nc(Cl)c1-c1ccc(F)cc1F` (stereo not shown) [Example 141]: the IC50 was found to be 0.046 µM.

With `CC(C)C(C)Nc1nc(-c2cccnn2)nc(Cl)c1-c1c(F)cc(F)cc1F` (stereo not shown) [Example 80], the IC50 worked out at 0.026 µM.

Take `CC(C)C(C)Nc1nc(-c2ccccn2)nc(Cl)c1-c1c(F)cccc1F` (stereo not shown) [Example 82]: the IC50 came out at 0.03 µM.

On to `CON=C(N)c1nc(Cl)c(-c2c(F)cc(F)cc2F)c(N[C@@H](C)C(C)C)n1` [Example 147], for which the IC50 turned out to be 0.041 µM.

Regarding `CON=C(N)c1nc(Cl)c(-c2ccc(F)cc2Cl)c(N[C@@H](C)C(C)C)n1` [Example 218], the IC50 came to 0.029 µM.

`Cc1ccc(-c2c(Cl)nc(-n3cccn3)nc2NCC(F)(F)F)c(F)c1` [Example 108]: the IC50 was 0.016 µM.

With `C[C@H](Nc1nc(C(N)=S)nc(Cl)c1-c1c(F)cccc1Cl)C(F)(F)F` [Example 169], the IC50 is 0.041 µM.

Consider `CC1CCCCN1c1nc(-n2ccnn2)nc(Cl)c1-c1c(F)cccc1F` (stereo not shown) [Example 126], for which the IC50 worked out at 0.038 µM.

As for `Fc1cc(F)c(-c2c(Cl)nc(-n3ccnn3)nc2NCC(F)(F)F)c(F)c1` [Example 212], the IC50 is 0.053 µM.

With `CON=C(N)c1nc(Cl)c(-c2ccc(F)cc2Cl)c(N2CCCC2C)n1` (stereo not shown) [Example 170], the IC50 amounted to 0.059 µM.

Take `CCOC(=O)C(C)C=NNc1nc(Cl)c(-c2c(F)cc(F)cc2F)c(N[C@@H](C)C(F)(F)F)n1` (stereo partly shown) [Example 152]: the IC50 turned out to be 0.024 µM.

As for `CC1CCCN1c1nc(-n2ccnn2)nc(Cl)c1-c1c(F)cc(F)cc1F` (stereo not shown) [Example 76], the IC50 came out at 0.0076 µM.

For the compound `COc1cc(F)c(-c2c(Cl)nc(C(N)=O)nc2N[C@@H](C)C(C)C)c(F)c1` [Example 199], the IC50 is 0.033 µM.

On to `COc1ccc(-c2c(Cl)nc(C(N)=NO)nc2N[C@@H](C)C(C)C)c(Cl)c1` [Example 185], for which the IC50 was determined as 0.03 µM.

With `C[C@H](Nc1nc(C(N)=O)nc(Cl)c1-c1c(F)cccc1F)C(F)(F)F` [Example 180], the IC50 came to 0.041 µM.

On to `Cc1nc(C)n(-c2nc(Cl)c(-c3c(F)cccc3F)c(N3CCC(C)CC3)n2)n1` [Example 118], for which the IC50 is 0.032 µM.

`Cc1nc(-c2nc(Cl)c(-c3c(F)cc(F)cc3F)c(N[C@H](C)C(C)C)n2)cs1` [Example 70]: the IC50 turned out to be 0.035 µM.

In the case of `CC1CCCN(c2nc(-n3cncn3)nc(Cl)c2-c2c(F)cc(F)cc2F)C1` (stereo not shown) [Example 44], the IC50 is 0.018 µM.

For `CCC(C)Nc1nc(-n2ccc(N)n2)nc(Cl)c1-c1c(C)cccc1F` (stereo not shown) [Example 143], the IC50 was 0.032 µM.

In the case of `CCC(C)Nc1nc(-n2ccnn2)nc(Cl)c1-c1c(F)cccc1F` (stereo not shown) [Example 114], the IC50 came to 0.041 µM.

Regarding `CON=C(N)c1nc(Cl)c(-c2ccc(F)cc2Cl)c(N[C@@H](C)C(F)(F)F)n1` [Example 211], the IC50 is 0.024 µM.
